Source: US9968610B2, “Pyrrolopyrimidine derivatives as NR2B NMDA receptor antagonists” (Rugen Holdings (Cayman) Limited, priority 2014, dated 2018)

Tested on: Rats
Assay: Electroconvulsive threshold (ECT) test
Format: in vivo, rat
Conditions: p.o. 60 minutes before ECS, theophylline 128 mg/kg, diazepam 16 mg/kg

SMILES	pro- or anticonvulsant activity (electroconvulsive threshold)
CN1C(=O)CN=C(c2ccccc2)c2cc(Cl)ccc21 [diazepam]	expected pro- and anticonvulsant activities
Cn1c(=O)c2[nH]cnc2n(C)c1=O [theophylline, Theophylline]	expected pro- and anticonvulsant activities
